Assay [1] concerns MCF-7 breast cancer cell line. The assay can be described thus: MCF-7 breast cancer cell proliferation assay (cell counting after about 72 hours). To be noted: about 72 hours incubation, HCl salts, read-out: IC50 (micromolar scale) MCF-7 breast cancer cell line. In kind it is cell-based, human. As for the experimental part: MCF-7 (ATCC HTB-22) cells, purchased from ATCC (Rockville, Md.), were grown in RPMI medium 1640 with 10% FBS (GIBCO, Grand Island, N.Y.) and 1% Antibiotic-Antimycotic (GIBCO, Grand Island, N.Y.) in an incubator (NUAIRE NU-1500, Plymouth, Minn.) with 5% CO2 and 95% air at about 37° Celsius. Cells were grown as monolayer, doubling time is from about 19 to about 24 hours. The stock solution of the test compound was prepared at 1 mg/ml drug concentration. The stock solution was diluted serially to obtain the desired drug concentrations, of from about 20 to about 200 μg/ml. Plates with twelve wells (5 ml capacity/well) were employed for all the experiments. In a typical experiment, each well contained 1×10^5 initial cells and about 100 μl drug solution in a total volume of about 2 ml media. The final concentrations of compounds were from about 0 to about 100 μg/ml in triplicate sample wells. The plates were incubated at 5% CO2 and 37° C. for about 72 hours. After incubation, cells were washed with PBS 1×, treated by 0.5 ml trypsin-EDTA for about 10 minutes and the cells were suspended by adding about 1.5 ml medium. Cells were counted by using a hemacytometer under a microscope. The data was converted to micromolar concentration using the various molecular weights and represent the mean values and standard errors.
Tables 1-4 illustrate the IC50 (50% inhibitory concentration) values of compounds described in this application against the MCF-7 breast cancer cell line.

The subject of the next assay is breast cancer. To be noted: adjuvant therapy; cited from earlier work.
A further assay relates to advanced breast cancer. The conditions noted are these: cited from earlier work.
[2] abbreviates: Table 1, Structure II compounds group.
Setting [3] is: Table 2, Structure III compounds group.
Where [4] appears, read: Table 3, Structure IV compounds group.

The text below walks through data of patent US7687486B2, “Selective estrogen receptor modulators” (Florida Agricultural & Mechanical University, priority 2003, dated 2010).

By IC50 is commonly meant the point on the concentration scale where inhibition reaches its midpoint.

Structures can show the parent of a compound that is named as a salt. Where two headings read alike, the source gives them in different places.

For `CC/C(=C(\c1ccc(O)cc1)c1ccc(OCCN(C)C)cc1)c1ccccc1` [4-Hydroxytamoxifen HCl salt, Trans-4-Hydroxytamoxifen, reference compound], the IC50 in assay [1] (setting [2]) was 9 µM; in assay [1] (setting [3]), 9.5 µM; in assay [1] (setting [4]), 10.6 µM.
In the case of `C[C@]12CC[C@@H]3c4ccc(OCCN5CCCCC5)cc4CC[C@H]3[C@@H]1CCC2=O` [3-[2-piperidinyl]-ethoxy]-]-Δ^1,3,5(10)-estrien-17-one], in assay [1] (setting [4]), the concentration for half-maximal inhibition (IC50) turned out to be 5.1 µM.
On to `C#CC1(O)CCC2C3CCc4cc(OCCN(C(C)C)C(C)C)ccc4C3CCC21C` (stereo not drawn) [3-[2-diisopropylamino]-ethoxy]-]-Δ^1,3,5(10)-estrien-17α-ethynyl-17β-ol], for which the IC50 in assay [1] (setting [3]) is 8.3 µM.
In the case of `CN(C)CCOc1ccc(/C(=C(/CCCl)c2ccccc2)c2ccccc2)cc1` [toremifene], the “reduction in the recurrence of breast cancer” value in the assay with breast cancer is reported as “not found to exhibit a statistically significant reduction in the recurrence of breast cancer”. In addition, the response rate is 50% in the assay on advanced breast cancer (toremifene 60 mg/day) and 48% in the assay on advanced breast cancer (toremifene 200 mg/day).
On to `C#CC1(O)CCC2C3CCc4cc(OCCN(C)C)ccc4C3CCC21C` (stereo not drawn) [3-[2-dimethylamino]-ethoxy]-]-Δ^1,3,5(10)-estrien-17α-ethynyl-17β-ol], for which, in assay [1] (setting [3]), the 50% inhibitory concentration (IC50) is 9.1 µM.
On to `CC(C)N(CCOc1ccc2c(c1)CC[C@@H]1[C@@H]2CC[C@]2(C)C(=O)CC[C@@H]12)C(C)C` [3-[2-diisopropylamino]-ethoxy]-]-Δ^1,3,5(10)-estrien-17-one], for which the IC50 in assay [1] (setting [4]) worked out at 9.2 µM.
For the compound `C[C@]12CC[C@@H]3c4ccc(OCCN5CCCC5)cc4CC[C@H]3[C@@H]1CC[C@@H]2O` [(17β)-3-[2-pyrrolidinylamino]-ethoxy]-]-Δ^1,3,5(10)-estrien-17-ol], in assay [1] (setting [2]), the IC50 came out at 10.8 µM.
On the same count and under the same terms, the figure for `CCN(CC)CCOc1ccc2c(c1)CC[C@@H]1[C@@H]2CC[C@]2(C)[C@@H](O)CC[C@@H]12` [(17β)-3-[2-diethylamino]-ethoxy]-]-Δ^1,3,5(10)-estrien-17-ol] is 8.7 µM.
`C[C@]12CC[C@@H]3c4ccc(OCCN5CCOCC5)cc4CC[C@H]3[C@@H]1CCC2=O` [3-[2-morpholinyl]-ethoxy]-]-Δ^1,3,5(10)-estrien-17-one]: in assay [1] (setting [4]), the concentration for half-maximal inhibition (IC50) is 20.8 µM.
The same measure, in the same setting: the figure for “3-[2-pyrrolidinylamino]-ethoxy]-]-Δ^1,3,5(10)-estrien-17-one” is 10.6 µM.
Still for that read-out and setting: then `CN(C)CCOc1ccc2c(c1)CC[C@@H]1[C@@H]2CC[C@]2(C)C(=O)CC[C@@H]12` [3-[2-dimethylamino]-ethoxy]-]-Δ^1,3,5(10)-estrien-17-one], with 37.8 µM; and `CCN(CC)CCOc1ccc2c(c1)CC[C@@H]1[C@@H]2CC[C@]2(C)C(=O)CC[C@@H]12` [3-[2-diethylamino]-ethoxy]-]-Δ^1,3,5(10)-estrien-17-one], with 7.5 µM.
Turning to `C[C@]12CC[C@@H]3c4ccc(OCCN5CCCCC5)cc4CC[C@H]3[C@@H]1CC[C@@H]2O` [(17β)-3-[2-piperidinyl]-ethoxy]-]-Δ^1,3,5(10)-estrien-17-ol], the IC50 in assay [1] (setting [2]) was 4.1 µM.
On to `CC/C(=C(\c1ccccc1)c1ccc(OCCN(C)C)cc1)c1ccccc1` [tamoxifen], for which, in the assay on advanced breast cancer (tamoxifen 20 mg/day), the response rate is listed as 44%.
Consider “3-[2-pyrrolidinylamino]-ethoxy]-]-Δ^1,3,5(10)-estrien-17α-ethynyl-17βol”, for which the IC50 in assay [1] (setting [3]) came out at 6.4 µM.
As to `CC(C)N(CCOc1ccc2c(c1)CC[C@@H]1[C@@H]2CC[C@]2(C)[C@@H](O)CC[C@@H]12)C(C)C` [(17β)-3-[2-diisopropylamino]-ethoxy]-]-Δ^1,3,5(10)-estrien-17-ol], the IC50 in assay [1] (setting [2]) worked out at 5.6 µM.
As for `C#C[C@]1(O)CC[C@H]2[C@@H]3CCc4cc(OCCN(CC)CC)ccc4[C@H]3CC[C@@]21C` [3-[2-diethylamino]-ethoxy]-]-Δ^1,3,5(10)-estrien-17α-ethynyl-17β-ol], the half-inhibitory concentration (IC50) in assay [1] (setting [3]) was 7.3 µM.
For the compound `C[C@]12CC[C@@H]3c4ccc(OCCN5CCOCC5)cc4CC[C@H]3[C@@H]1CC[C@@H]2O` [(17β)-3-[2-morpholinyl]-ethoxy]-]-Δ^1,3,5(10)-estrien-17-ol], the IC50 in assay [1] (setting [2]) was determined as 19.8 µM.
Consider `C#CC1(O)CCC2C3CCc4cc(OCCN5CCCCC5)ccc4C3CCC21C` (stereo not drawn) [3-[2-piperidinyl]-ethoxy]-]-Δ^1,3,5(10)-estrien-17α-ethynyl-17β-ol], for which the IC50 in assay [1] (setting [3]) stood at 6.1 µM.
Same read-out and setting: then `C#CC1(O)CCC2C3CCc4cc(OCCN5CCOCC5)ccc4C3CCC21C` (stereo not drawn) [3-[2-morpholinyl]-ethoxy]-]-Δ^1,3,5(10)-estrien-17α-ethynyl-17β-ol], with 21.5 µM.
As for `CN(C)CCOc1ccc2c(c1)CC[C@@H]1[C@@H]2CC[C@]2(C)[C@@H](O)CC[C@@H]12` [(17β)-3-[2-dimethylamino]-ethoxy]-Δ^1,3,5(10)-estrien-17-ol], the IC50 in assay [1] (setting [2]) is 16.2 µM.
